This note sets out measurements from ChEMBL document CHEMBL3886996, “6-alkynyl-pyridine derivatives” (2016).

In the experiment the target is Baculoviral IAP repeat-containing protein 2 (Homo sapiens, UniProt Q13490). The experiment can be described thus: Binding Assays (DELFIA): BIR3 domains (10 nM) were incubated with SMAC peptide (10 nM) in assay buffer (50 mM Tris, 120 mM NaCl, 0.1% BSA, 1 mM DTT, 0.05% Triton X100) for one hour at room temperature in the presence of inhibitory compounds. The assay mixture was transferred to a streptavidin coated plate and incubated for one hour at room temperature to allow binding of the biotinylated peptide and associated BIR3 domains to the plate. After several washing steps Eu labeled anti-GST antibody (e.g. Perkin Elmer DELFIA Eu-N1-antiGST AD0250) was added to detect BIR3 domain-SMAC peptide interactions according to Perkin Elmer's instructions. Briefly, the antibody was added (dilution 1:5000 in Perkin Elmer DELFIA Assay Buffer 2013-01) and incubated for one hour. After 3 washing steps using Delfia Washing Buffer (Perkin Elmer DELFIA Wash 2013-05), Enhancement Solution (Perkin Elmer Enhancement Asolution 2013-02) was added and incubation continued for 10 minutes.

SMILES strings stand for the structures.

Turning to `CN[C@@H](C)C(=O)Nc1ccc(-c2c(-c3cccnc3OC)nc3ccccn23)c(C#Cc2ccc3c(C)nccc3c2)n1`, the IC50 – broadly, the concentration that gives 50% inhibition – is “in the range around 2 nM”.
